≈ marks a conversion by molar mass, not a printed value.
How the values were obtained:
S. pneumoniae D39V [1] = assay: fitness (endpoint OD595 vs no drug) (fraction); higher = more growth
Method in brief: (§1)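 Fitness was measured as bacterial growth in 384-well plates inoculated at OD595 0.01 (30 µl, or 55 µl for S. pneumoniae). Media were TSB, LB Lennox or CY, at 37 °C. OD595 was read every 30 min for 14 h and background-subtracted against the first reading. Fitness is OD595 at the transition into stationary phase divided by the robust mean of no-drug control wells, capped at 1.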

S. aureus DSM 20231 [2] = assay: as above
Method in brief: as §1

S. aureus Newman [3] = assay: as above
Method in brief: as §1

S. pneumoniae D39V [4] = assay: Bliss interaction score (quartile over a dose matrix) (fitness difference); higher = more antagonism (negative = synergy)
Method in brief: (§2)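 Each OD595 reading at entry into stationary phase was scaled to the robust mean of the untreated wells on its plate, with a ceiling of 1. These ratios define fitness, and single-drug fitness was inferred from combinations. The Bliss score compares observed fitness with the product-based expectation and is reported as quartiles across all replicate types, technical, biological and donor/recipient.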

S. aureus DSM 20231 [5] = assay: as above
Method in brief: as §2

S. aureus Newman [6] = assay: as above
Method in brief: as §2

B. subtilis 168 [7] = assay: as above
Method in brief: as §2

S. pneumoniae D39V [8] = tested on: S. pneumoniae D39V
S. aureus DSM 20231 [9] = tested on: S. aureus DSM 20231
S. aureus Newman [10] = tested on: S. aureus Newman
B. subtilis 168 [11] = tested on: B. subtilis 168
B. subtilis 168 [12] = assay: fitness (endpoint OD595 vs no drug) (fraction); higher = more growth
Method in brief: as §1
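For Bliss interaction score (quartile over a dose matrix) in this document: first quartile when negative (synergy) and third quartile when positive (antagonism).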

CN[C@@H]1[C@H](O)[C@H](NC)[C@H]2O[C@@]3(O)C(=O)C[C@@H](C)O[C@H]3O[C@@H]2[C@H]1O [Spectinomycin] + Cn1nnc(-c2ccc(-c3ccc(N4C[C@H](CO)OC4=O)cc3F)cn2)n1 [Tedizolid]
fitness
Details | first compound 4 µg/mL | first compound 8 µg/mL | first compound 16 µg/mL
S. aureus DSM 20231 [2], partner 0.0625 µg/mL | 0.964 | 0.916 | 0.744
S. aureus DSM 20231 [2], partner 0.125 µg/mL | 0.657 | 0.678 | 0.641
S. aureus DSM 20231 [2], partner 0.25 µg/mL | 0.257 | 0.225 | 0.199
S. aureus Newman [3], partner 0.0625 µg/mL | 0.922 | 0.939 | –
S. pneumoniae D39V [1], partner 0.03125 µg/mL | 0.87 | 0.914 | 0.78
S. pneumoniae D39V [1], partner 0.0625 µg/mL | 0.888 | 0.955 | 0.807
S. pneumoniae D39V [1], partner 0.125 µg/mL | 0.815 | 0.807 | 0.729

fitness, one replicate
Details | partner 0.0625 µg/mL | partner 0.125 µg/mL | partner 0.25 µg/mL | partner 0.5 µg/mL
S. aureus DSM 20231 [2], first compound 32 µg/mL | 0.406 | 0.202 | 0.0234 | –
S. aureus DSM 20231 [2], first compound 64 µg/mL | 0.0239 | 0.0268 | 0.0093 | –
S. aureus Newman [3], first compound 32 µg/mL | 0.101 | 0.0307 | 0.0315 | –
S. aureus Newman [3], first compound 64 µg/mL | 0.0254 | 0.023 | 0.0159 | –
S. pneumoniae D39V [1], first compound 4 µg/mL | – | – | 0.73 | 0.362
S. pneumoniae D39V [1], first compound 8 µg/mL | – | – | 0.724 | 0.416

Details | Bliss interaction score
B. subtilis 168 [7] | -0.0466
S. aureus DSM 20231 [5] | 0.0654
S. aureus Newman [6] | -0.111
S. pneumoniae D39V [4] | -0.0885

CN[C@@H]1[C@H](O[C@H]2[C@H](O[C@H]3[C@H](O)[C@@H](O)[C@H](N=C(N)N)[C@@H](O)[C@@H]3N=C(N)N)O[C@@H](C)[C@]2(O)C=O)O[C@@H](CO)[C@H](O)[C@H]1O [Streptomycin]
Details | MIC [µg/mL]
B. subtilis 168 [11] | 8 (≈ 13.8 µM)
S. aureus DSM 20231 [9] | 8 (≈ 13.8 µM)
S. aureus Newman [10] | 8 (≈ 13.8 µM)
S. pneumoniae D39V [8] | 8 (≈ 13.8 µM)

fitness
Details | 1 µg/mL | 2 µg/mL | 4 µg/mL | 8 µg/mL
B. subtilis 168 [12] | – | 0.954 | 0.775 | 0.0378
S. aureus Newman [3] | 0.971 | 0.954 | 0.899 | 0.579
S. pneumoniae D39V [1] | – | 0.932 | 0.943 | 0.914
